Test results published in ChEMBL document CHEMBL1133710 (J Med Chem, 2000).

Key:
D(2) dopamine receptor [1] = target: T1, D(2) dopamine receptor (Homo sapiens, UniProt P14416); experiment: Binding Affinity was determined in the presence of 100 micro M Gpp(NH)p for decoupling of the ternary complex of Compound to Dopamine receptor D2L
D(4) dopamine receptor [2] = target: T2, D(4) dopamine receptor (Homo sapiens, UniProt P21917); experiment: Binding Affinity was tested on low Affinity Site of Dopamine receptor D4.4
T2 sequence (P21917 whole entry): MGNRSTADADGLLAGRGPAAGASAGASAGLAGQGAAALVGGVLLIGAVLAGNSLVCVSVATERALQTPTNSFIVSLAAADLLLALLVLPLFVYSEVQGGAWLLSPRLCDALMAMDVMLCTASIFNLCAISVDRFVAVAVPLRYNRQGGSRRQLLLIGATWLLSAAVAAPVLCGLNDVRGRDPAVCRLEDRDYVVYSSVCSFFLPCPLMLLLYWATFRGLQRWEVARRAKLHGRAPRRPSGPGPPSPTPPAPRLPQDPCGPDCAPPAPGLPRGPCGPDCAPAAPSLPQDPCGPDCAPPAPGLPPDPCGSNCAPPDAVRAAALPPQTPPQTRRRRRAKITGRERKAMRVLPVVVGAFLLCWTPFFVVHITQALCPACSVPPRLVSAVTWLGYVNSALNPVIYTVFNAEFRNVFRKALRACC

D(2) dopamine receptor [3] = target: T1, D(2) dopamine receptor; experiment: Binding Affinity of Compound of Dopamine receptor D2S
D(3) dopamine receptor [4] = target: T3, D(3) dopamine receptor (Homo sapiens, UniProt P35462); experiment: Binding Affinity was tested on low Affinity Site of Dopamine receptor D3
T3 sequence (P35462 whole entry): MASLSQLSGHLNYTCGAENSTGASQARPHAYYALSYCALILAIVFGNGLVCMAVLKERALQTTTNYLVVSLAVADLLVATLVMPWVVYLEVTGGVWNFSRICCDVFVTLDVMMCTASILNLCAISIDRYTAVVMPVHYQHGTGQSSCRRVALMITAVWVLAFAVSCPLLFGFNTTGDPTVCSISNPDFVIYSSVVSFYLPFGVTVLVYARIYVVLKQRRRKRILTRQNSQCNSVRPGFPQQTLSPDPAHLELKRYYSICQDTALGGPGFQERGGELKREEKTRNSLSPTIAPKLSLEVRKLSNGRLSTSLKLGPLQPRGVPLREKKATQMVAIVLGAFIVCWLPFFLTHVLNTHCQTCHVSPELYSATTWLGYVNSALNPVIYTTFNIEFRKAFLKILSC

D(2) dopamine receptor [5] = target: T1, D(2) dopamine receptor; experiment: Binding Affinity was tested on low Affinity Site of Dopamine receptor D2L
D(3) dopamine receptor [6] = target: T3, D(3) dopamine receptor; experiment: Binding Affinity was determined in the presence of 100 micro M Gpp(NH)p for decoupling of the ternary complex of Compound to Dopamine receptor D3
D(2) dopamine receptor [7] = target: T1, D(2) dopamine receptor; experiment: Binding Affinity was determined in the presence of 100 micro M Gpp(NH)p for decoupling of the ternary complex of Compound to Dopamine receptor D2S
D(4) dopamine receptor [8] = target: T2, D(4) dopamine receptor; experiment: Binding Affinity was tested on the high affinity site of Dopamine receptor D4.4
D(2) dopamine receptor [9] = target: T1, D(2) dopamine receptor; experiment: Dissociation constant of compound on one-site model Dopamine receptor D2L
D(4) dopamine receptor [10] = target: T2, D(4) dopamine receptor; experiment: Dissociation constant of compound on one-site model Dopamine receptor D4.4
D(2) dopamine receptor [11] = target: T1, D(2) dopamine receptor
D(2) dopamine receptor [12] = target: T1, D(2) dopamine receptor; experiment: Dissociation constant of compound on one-site model Dopamine receptor D2S
D(2) dopamine receptor [13] = target: T1, D(2) dopamine receptor; remark: listed apart in the source
D(3) dopamine receptor [14] = target: T3, D(3) dopamine receptor
D(3) dopamine receptor [15] = target: T3, D(3) dopamine receptor; experiment: Dissociation constant of compound on one-site model Human Dopamine receptor D3
D(1A) dopamine receptor [16] = target: T4, D(1A) dopamine receptor (Bos taurus, UniProt Q95136); experiment: Binding Affinity was tested on High Affinity Site of Bovine dopamine receptor D1. Tested for ability to displace the radioligand [3H]-SCH- 23390
T4 sequence (Q95136 whole entry): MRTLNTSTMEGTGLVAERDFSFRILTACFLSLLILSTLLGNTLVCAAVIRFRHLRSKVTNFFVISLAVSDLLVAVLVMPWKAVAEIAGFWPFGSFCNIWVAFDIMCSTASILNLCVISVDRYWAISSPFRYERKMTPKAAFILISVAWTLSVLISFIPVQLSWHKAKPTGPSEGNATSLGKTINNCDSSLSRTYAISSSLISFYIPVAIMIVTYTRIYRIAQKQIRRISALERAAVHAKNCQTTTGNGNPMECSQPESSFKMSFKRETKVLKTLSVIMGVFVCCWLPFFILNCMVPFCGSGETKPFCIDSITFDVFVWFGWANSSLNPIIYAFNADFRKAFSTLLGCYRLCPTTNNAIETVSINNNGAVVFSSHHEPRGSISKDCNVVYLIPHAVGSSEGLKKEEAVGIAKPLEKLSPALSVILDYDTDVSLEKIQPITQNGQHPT

D(2) dopamine receptor [17] = target: T5, D(2) dopamine receptor (Bos taurus, UniProt P20288); experiment: Binding Affinity was tested on high Affinity Site of Bovine Dopamine D2 Receptor. Tested for ability to displace the radioligand [3H]-Spiperone
T5 sequence (P20288 whole entry): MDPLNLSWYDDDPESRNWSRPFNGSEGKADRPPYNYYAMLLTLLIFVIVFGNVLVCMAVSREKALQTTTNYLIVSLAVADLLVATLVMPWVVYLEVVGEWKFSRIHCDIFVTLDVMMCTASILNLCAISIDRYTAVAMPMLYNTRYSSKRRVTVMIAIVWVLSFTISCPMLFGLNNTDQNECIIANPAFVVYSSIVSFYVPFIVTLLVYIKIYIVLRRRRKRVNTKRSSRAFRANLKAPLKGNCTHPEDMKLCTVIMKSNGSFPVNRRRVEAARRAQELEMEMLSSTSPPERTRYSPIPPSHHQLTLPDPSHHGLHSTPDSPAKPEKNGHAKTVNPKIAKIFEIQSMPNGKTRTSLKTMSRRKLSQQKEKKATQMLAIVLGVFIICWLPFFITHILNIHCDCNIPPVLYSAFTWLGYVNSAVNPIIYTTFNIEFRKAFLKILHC

D(2) dopamine receptor [18] = target: T5, D(2) dopamine receptor; experiment: Binding Affinity was tested on high Affinity Site of Bovine dopamine receptor D2. Tested for ability to displace the radioligand [3H]pramipexole at the binding site.
D(2) dopamine receptor [19] = target: T5, D(2) dopamine receptor; experiment: Binding Affinity was determined for decoupling of the ternary complex of Compound to Bovine dopamine receptor D2. Tested for ability to displace the radioligand [3H]spiperone at the binding site.
D(2) dopamine receptor [20] = target: T5, D(2) dopamine receptor; experiment: Dissociation constant of compound on one-site model Bovine dopamine receptor D2. Tested for ability to displace the radioligand [3H]spiperone at the binding site.
D(3) dopamine receptor [21] = target: T3, D(3) dopamine receptor; experiment: Dissociation constant of compound on one-site model Dopamine receptor D3
D(2) dopamine receptor [22] = target: T5, D(2) dopamine receptor; experiment: Binding Affinity was tested on low Affinity Site of Bovine dopamine receptor D2. Tested for ability to displace the radioligand [3H]spiperone at the binding site.
D(1A) dopamine receptor [23] = target: T4, D(1A) dopamine receptor; experiment: Binding Affinity was tested on High Affinity Site of Bovine Dopamine D1 Receptor. Tested for ability to displace the radioligand [3H]-SCH- 23390
D(2) dopamine receptor [24] = target: T1, D(2) dopamine receptor; experiment: Binding Affinity was tested on High Affinity Site of Dopamine receptor D2L
D(2) dopamine receptor [25] = target: T1, D(2) dopamine receptor; experiment: Binding Affinity was tested on High Affinity Site of Dopamine receptor D2S
D(3) dopamine receptor [26] = target: T3, D(3) dopamine receptor; remark: listed apart in the source
D(2) dopamine receptor [27] = target: T1, D(2) dopamine receptor; remark: listed apart in the source
D(2) dopamine receptor [28] = target: T1, D(2) dopamine receptor; remark: listed apart in the source
D(1A) dopamine receptor [29] = target: T4, D(1A) dopamine receptor; experiment: Binding Affinity was tested for its ability to displace the radioligand [3H]-SCH- 23390 from High Affinity Site of Bovine dopamine receptor D1

T1 sequence (P14416 whole entry): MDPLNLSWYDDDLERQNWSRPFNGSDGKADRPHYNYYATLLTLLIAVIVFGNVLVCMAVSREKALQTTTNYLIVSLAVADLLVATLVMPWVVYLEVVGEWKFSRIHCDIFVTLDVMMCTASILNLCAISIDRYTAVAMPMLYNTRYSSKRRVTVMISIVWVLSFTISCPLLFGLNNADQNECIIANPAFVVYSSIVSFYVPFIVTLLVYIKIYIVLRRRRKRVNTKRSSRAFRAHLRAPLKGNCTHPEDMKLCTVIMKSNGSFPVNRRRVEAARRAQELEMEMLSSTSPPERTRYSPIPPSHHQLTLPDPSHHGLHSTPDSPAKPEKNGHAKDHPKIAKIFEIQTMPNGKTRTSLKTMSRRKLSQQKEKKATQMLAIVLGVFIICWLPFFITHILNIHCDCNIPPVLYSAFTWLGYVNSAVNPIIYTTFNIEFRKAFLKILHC

SMILES	Ki (D(4) dopamine receptor [8])	Ki (D(2) dopamine receptor [11])	Ki (D(2) dopamine receptor [13])	Ki (D(3) dopamine receptor [14])	Ki (D(1A) dopamine receptor [16])	further results
CCCN(CCC)C1CCC(=C(C#C[Si](C)(C)C)C#C[Si](C)(C)C)CC1 (stereo unspecified)	1.9 µM	11 µM	13 µM	2.8 µM	–	Ki (D(1A) dopamine receptor [23]): 3.9 µM
CCCN(CCC)C1CCC(=C(C#N)C#N)CC1 (stereo unspecified)	> 20 µM	> 20 µM	15 µM	1.6 µM	> 20 µM	–
C#CC(C#C)=C1CCC(N(CCC)CCC)CC1 (stereo unspecified)	3.9 µM	12 µM	> 20 µM	4.4 µM	–	Ki (D(1A) dopamine receptor [23]): 16 µM
CCCN(CCC)C1CCC(=C(C#Cc2ccccc2)C#Cc2ccccc2)CC1 (stereo unspecified)	1.4 µM	5.2 µM	7.3 µM	1.8 µM	2.2 µM	–
CCCN(CCC)C1CCC(=CC#N)CC1 (stereo unspecified)	> 20 µM	–	–	–	–	Ki (D(3) dopamine receptor [26]): 13 µM; Ki (D(2) dopamine receptor [27]): > 20 µM; Ki (D(2) dopamine receptor [28]): > 20 µM; Ki (D(1A) dopamine receptor [29]): > 20 µM

Second part, led by results:

Ki (D(4) dopamine receptor [8])	Ki (D(2) dopamine receptor [11])	Ki (D(2) dopamine receptor [13])	Ki (D(3) dopamine receptor [14])	Ki (D(1A) dopamine receptor [16])	SMILES	further results
0.022 µM	0.27 µM	0.25 µM	0.0052 µM	–	C#CC1=CCC(N(CCC)CCC)CC1 (stereo unspecified)	Ki (D(2) dopamine receptor [1]): 19 µM; Ki (D(4) dopamine receptor [2]): 0.38 µM; Ki (D(2) dopamine receptor [3]): 12 µM; Ki (D(3) dopamine receptor [4]): 0.59 µM; Ki (D(2) dopamine receptor [5]): 14 µM; Ki (D(3) dopamine receptor [6]): 0.72 µM; Ki (D(2) dopamine receptor [7]): 17 µM; Ki (D(2) dopamine receptor [9]): 2.8 µM; Ki (D(4) dopamine receptor [10]): 0.17 µM; Ki (D(2) dopamine receptor [12]): 2.9 µM; Ki (D(3) dopamine receptor [15]): 0.35 µM
0.16 µM	0.16 µM	0.97 µM	0.047 µM	> 20 µM	CCCN(CCC)C1CC=C(C#C[Si](C)(C)C)CC1 (stereo unspecified)	Ki (D(2) dopamine receptor [1]): > 20 µM; Ki (D(4) dopamine receptor [2]): 3.8 µM; Ki (D(2) dopamine receptor [3]): > 20 µM; Ki (D(2) dopamine receptor [17]): 0.15 µM; Ki (D(3) dopamine receptor [4]): 1.6 µM; Ki (D(2) dopamine receptor [5]): > 20 µM; Ki (D(2) dopamine receptor [18]): 0.03 µM; Ki (D(3) dopamine receptor [6]): 1.9 µM; Ki (D(2) dopamine receptor [19]): 12 µM; Ki (D(2) dopamine receptor [20]): 1.6 µM; Ki (D(3) dopamine receptor [21]): 0.82 µM; Ki (D(2) dopamine receptor [7]): > 20 µM; Ki (D(2) dopamine receptor [9]): > 20 µM; Ki (D(4) dopamine receptor [10]): 0.64 µM; Ki (D(2) dopamine receptor [12]): > 20 µM; Ki (D(2) dopamine receptor [22]): 7.5 µM
> 20 µM	> 20 µM	> 20 µM	13 µM	> 20 µM	CCCN(CCC)C1CC=C(C#N)CC1 (stereo unspecified)	–
16 µM	–	–	3.5 µM	> 20 µM	CCCN(CCC)C1CC=C(C#Cc2ccccc2)CC1 (stereo unspecified)	Ki (D(2) dopamine receptor [24]): 15 µM; Ki (D(2) dopamine receptor [25]): 15 µM
